According to patent US8642609B2, “Modulators of ATP-binding cassette transporters” (Vertex Pharmaceuticals Incorporated, priority 2003, dated 2014):
pEC50: −log10 of the molar value.

Molecular target: T1, ΔF508-CFTR (Homo sapiens, UniProt P13569, DEL508-508)
T1 construct: expressed in transfected cells
Test: Membrane potential optical assay (FRET/VIPR), identification of correction compounds
Format: cell-based
Conditions: for Emax: relative efficacy
Procedure, shortened: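 NIH3T3 cells stably expressing ΔF508-CFTR incubated 16 hrs at 37° C in serum-free medium with test compound; 27° C incubation as positive control. CFTR then activated with 10 μM forskolin plus 20 μM genistein in Cl^−-free medium; depolarization read by DiSBAC2(3)/CC2-DMPE FRET on VIPR.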

T1 sequence (P13569 with tags, fused parts or gaps DEL508-508): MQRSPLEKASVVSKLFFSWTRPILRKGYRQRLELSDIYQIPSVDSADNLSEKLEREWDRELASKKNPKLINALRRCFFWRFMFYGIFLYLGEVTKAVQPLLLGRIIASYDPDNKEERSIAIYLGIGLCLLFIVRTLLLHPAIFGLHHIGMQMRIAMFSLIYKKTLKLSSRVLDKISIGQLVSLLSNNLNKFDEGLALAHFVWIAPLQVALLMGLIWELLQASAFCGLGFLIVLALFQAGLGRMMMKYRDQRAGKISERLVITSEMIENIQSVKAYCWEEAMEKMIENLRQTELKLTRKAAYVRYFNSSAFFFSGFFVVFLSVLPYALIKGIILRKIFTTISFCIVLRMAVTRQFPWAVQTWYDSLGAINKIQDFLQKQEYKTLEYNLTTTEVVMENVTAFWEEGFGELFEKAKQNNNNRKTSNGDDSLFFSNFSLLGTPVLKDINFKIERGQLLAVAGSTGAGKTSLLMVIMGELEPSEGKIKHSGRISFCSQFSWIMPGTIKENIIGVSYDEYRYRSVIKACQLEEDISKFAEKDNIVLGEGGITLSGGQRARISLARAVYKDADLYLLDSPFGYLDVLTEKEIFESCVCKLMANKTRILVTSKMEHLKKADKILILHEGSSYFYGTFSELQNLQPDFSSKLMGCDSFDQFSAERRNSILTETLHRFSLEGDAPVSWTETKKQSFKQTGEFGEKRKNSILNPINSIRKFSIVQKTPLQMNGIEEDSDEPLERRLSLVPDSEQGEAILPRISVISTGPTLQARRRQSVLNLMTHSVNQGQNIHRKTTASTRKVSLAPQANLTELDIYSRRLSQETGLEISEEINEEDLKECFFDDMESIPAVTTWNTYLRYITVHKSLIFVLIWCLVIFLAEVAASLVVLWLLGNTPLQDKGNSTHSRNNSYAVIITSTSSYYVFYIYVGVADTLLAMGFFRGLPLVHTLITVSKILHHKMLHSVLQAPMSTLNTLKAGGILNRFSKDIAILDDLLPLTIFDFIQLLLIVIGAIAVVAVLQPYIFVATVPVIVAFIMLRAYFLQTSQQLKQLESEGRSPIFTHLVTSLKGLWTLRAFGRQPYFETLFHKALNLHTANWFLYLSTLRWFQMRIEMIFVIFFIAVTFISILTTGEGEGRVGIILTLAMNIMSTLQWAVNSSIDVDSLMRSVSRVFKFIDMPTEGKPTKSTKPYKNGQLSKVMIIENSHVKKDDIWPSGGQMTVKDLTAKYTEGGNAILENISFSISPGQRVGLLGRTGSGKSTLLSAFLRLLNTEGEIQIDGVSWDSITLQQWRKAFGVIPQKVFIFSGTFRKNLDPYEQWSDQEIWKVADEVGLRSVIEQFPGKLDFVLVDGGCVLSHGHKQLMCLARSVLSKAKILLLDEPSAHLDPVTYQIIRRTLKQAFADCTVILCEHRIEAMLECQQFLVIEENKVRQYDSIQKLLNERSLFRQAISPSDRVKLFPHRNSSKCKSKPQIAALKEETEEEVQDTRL

SMILES | pEC50 | Emax [%]
CC(c1nc2ccccc2c(=O)n1C)N1CCC(NS(=O)(=O)c2ccc(Cl)cc2)C1 (centres unmarked) [compound 162] | 4.22 to 4.60 | < 25
CC(c1nc2ccccc2c(=O)n1C)N1CCC(NS(=O)(=O)c2ccc(Br)cc2)C1 (centres unmarked) [compound 163] | 4.22 to 4.60 | < 25
COc1ccc(S(=O)(=O)NC2CCN(C(C)c3nc4ccccc4c(=O)n3C)CC2)cc1 (centres unmarked) [compound 164] | 4.22 to 4.60 | 25 to 100
CC(c1nc2ccccc2c(=O)n1C)N1CCC(NS(=O)(=O)c2ccc(Cl)cc2)CC1 (centres unmarked) [compound 165] | > 5.00 | 25 to 100
CC(c1nc2ccccc2c(=O)n1C)N1CCC(NS(=O)(=O)c2ccc(Br)cc2)CC1 (centres unmarked) [compound 166] | > 5.00 | 25 to 100
COc1ccc(S(=O)(=O)NCCNC(C)c2nc3ccccc3c(=O)n2C)cc1 (centres unmarked) [compound 167] | 4.22 to 4.60 | < 25
CC(NCCNS(=O)(=O)c1ccc(Cl)cc1)c1nc2ccccc2c(=O)n1C (centres unmarked) [compound 168] | 4.22 to 4.60 | < 25
CC(NCCNS(=O)(=O)c1ccc(Br)cc1)c1nc2ccccc2c(=O)n1C (centres unmarked) [compound 169] | 4.22 to 4.60 | 25 to 100
COc1ccc(S(=O)(=O)N2CCCN(C(C)c3nc4ccccc4c(=O)n3C)CC2)cc1 (centres unmarked) [compound 170] | 4.22 to 4.60 | 25 to 100
CC(c1nc2ccccc2c(=O)n1C)N1CCCN(S(=O)(=O)c2ccc(Cl)cc2)CC1 (centres unmarked) [compound 171] | 4.60 to 5.00 | 25 to 100
CC(c1nc2ccccc2c(=O)n1C)N1CCCN(S(=O)(=O)c2ccc(Br)cc2)CC1 (centres unmarked) [compound 172] | > 5.00 | 25 to 100
CC(NCCCNS(=O)(=O)c1ccc(Cl)cc1)c1nc2ccccc2c(=O)n1C (centres unmarked) [compound 173] | 4.22 to 4.60 | 25 to 100
CC(NCCCNS(=O)(=O)c1ccc(Br)cc1)c1nc2ccccc2c(=O)n1C (centres unmarked) [compound 174] | 4.22 to 4.60 | 25 to 100
COc1ccc(S(=O)(=O)N2CC3CC2CN3C(C)c2nc3ccccc3c(=O)n2C)cc1 (centres unmarked) [compound 175] | 4.22 to 4.60 | < 25
CC(c1nc2ccccc2c(=O)n1C)N1CC2CC1CN2S(=O)(=O)c1ccc(Cl)cc1 (centres unmarked) [compound 176] | 4.22 to 4.60 | 25 to 100
CC(c1nc2ccccc2c(=O)n1C)N1CC2CC1CN2S(=O)(=O)c1ccc(Br)cc1 (centres unmarked) [compound 177] | 4.22 to 4.60 | 25 to 100
CC(c1nc2ccccc2c(=O)n1C)N1CCC(N)C1 (centres unmarked) [compound 178] | 4.22 to 4.60 | < 25
CC(NC1CCNCC1)c1nc2ccccc2c(=O)n1C (centres unmarked) [compound 179] | 4.22 to 4.60 | < 25
CC(c1nc2ccccc2c(=O)n1C)N1CCC(N)CC1 (centres unmarked) [compound 180] | 4.22 to 4.60 | < 25
CC(NCCN)c1nc2ccccc2c(=O)n1C (centres unmarked) [compound 181] | 4.22 to 4.60 | < 25
CNCCNC(C)c1nc2ccccc2c(=O)n1C (centres unmarked) [compound 182] | 4.22 to 4.60 | < 25
CC(NCC1CCCCN1)c1nc2ccccc2c(=O)n1C (centres unmarked) [compound 183] |  | < 25
CC(NC[C@@H]1CCCCN1)c1nc2ccccc2c(=O)n1C (some centres unmarked) [compound 183] | 4.22 to 4.60 | 
CC(c1nc2ccccc2c(=O)n1C)N1CCCNCC1 (centres unmarked) [compound 184] | 4.22 to 4.60 | < 25
CC(NCCCN)c1nc2ccccc2c(=O)n1C (centres unmarked) [compound 185] | 4.22 to 4.60 | < 25
CC(c1nc2ccccc2c(=O)n1C)N1CC2CC1CN2 (centres unmarked) [compound 186] | 4.22 to 4.60 | < 25
COc1ccc(S(=O)(=O)N2CCN(C(C)c3nc(OC)c4ccccc4n3)CC2)cc1 (centres unmarked) [compound 187] | 4.22 to 4.60 | 25 to 100
CCOc1nc(C(C)N2CCN(S(=O)(=O)c3ccc(OC)cc3)CC2)nc2ccccc12 (centres unmarked) [compound 188] | 4.60 to 5.00 | > 100
CCCOc1nc(C(C)N2CCN(S(=O)(=O)c3ccc(OC)cc3)CC2)nc2ccccc12 (centres unmarked) [compound 189] | 4.60 to 5.00 | > 100
